According to ChEMBL document CHEMBL1155191, “Simple dihydrosphyngosine analogues with potent activity against MDR-Mycobacterium tuberculosis” (2009):
Values after ≈ are worked out from the molar mass of the structure shown.

Key:
Type in all cases: functional
[1] = system: Mycobacterium tuberculosis; test: Antimycobacterial activity against Mycobacterium tuberculosis CIB99 after 5 to 7 days by microplate alamar blue assay
[2] = system: Mycobacterium tuberculosis; test: Antimycobacterial activity against Mycobacterium tuberculosis H37Rv ATCC 27294 after 5 to 7 days by microplate alamar blue assay
[3] = system: Mycobacterium tuberculosis; test: Ratio of ethambutol MIC to compound MIC for Mycobacterium tuberculosis H37Rv ATCC 27294
[4] = system: Mycobacterium tuberculosis; test: Ratio of ethambutol MIC to compound MIC for Mycobacterium tuberculosis CIB99

For CCCCCCCCCCCCCCC(CNCC)NC(=O)OC(C)(C)C (stereo not given), the MIC [1] was 32 µM (≈ 12.3 µg/mL), the MIC [2] was 32 µM (≈ 12.3 µg/mL) and the Ratio [3] was 0.3. For the same compound, the Ratio [4] was over 4.9.
Work on CCCCCCCCCCCCCCC(CO)NC(=O)OC(C)(C)C (stereo not given) yielded an MIC [1] of 84 µM (≈ 30 µg/mL), an MIC [2] of 84 µM (≈ 30 µg/mL) and a Ratio [3] of 0.12. The Ratio [4] was over 5.
CCCCCCCCCCCCCCC(CO)N(CC)CC (stereo not given) was tested, and the MIC [1] was 40 µM (≈ 12.5 µg/mL), the MIC [2] was 20 µM (≈ 6.27 µg/mL) and the Ratio [3] was 0.5. The Ratio [4] was over 3.9.
CCCCCCCCCCCCCCC(O)CNCc1ccccc1 (stereo not given) was tested, and the MIC [1] was 72 µM (≈ 25 µg/mL), the MIC [2] was 36 µM (≈ 12.5 µg/mL) and the Ratio [3] was 0.28. For the same compound, the Ratio [4] was over 2.2.
CCCCCCCCCCCCCCC(COCc1ccccc1)NCC (stereo not given) was tested, and the MIC [1] was 16.6 µM (≈ 6.24 µg/mL), the MIC [2] was 16.6 µM (≈ 6.24 µg/mL) and the Ratio [3] was 0.6. It also gave a Ratio [4] of over 9.5.
Compound CO[C@H]1/C=C/O[C@@]2(C)Oc3c(C)c(O)c4c(O)c(c(/C=N/N5CCN(C)CC5)c(O)c4c3C2=O)NC(=O)/C(C)=C\C=C\[C@H](C)[C@H](O)[C@@H](C)[C@@H](O)[C@@H](C)[C@H](OC(C)=O)[C@@H]1C [RIFAMPIN] has an MIC [1] of over 2.43 µM, an MIC [2] of 0.152 µM (≈ 0.125 µg/mL) and a Ratio [3] of 650. It also gave a Ratio [4] of 65.
With CCCCCCCCCCCCCCC(COCc1ccccc1)N(CC)CC (stereo not given) the MIC [1] was 3.1 µM (≈ 1.25 µg/mL), the MIC [2] was 3.1 µM (≈ 1.25 µg/mL) and the Ratio [3] was 3.2. The Ratio [4] was over 50.
Work on CCCCCCCCCCCCCCC(O)CNC1CCCCC1 (stereo not given) yielded an MIC [1] of 11 µM (≈ 3.74 µg/mL), an MIC [2] of 33 µM (≈ 11.2 µg/mL) and a Ratio [3] of 0.3. For the same compound, the Ratio [4] was over 14.
In the case of CCCCCCCCCCCCCCC(N)CN(CC)CC (stereo not given), the MIC [1] is reported as 8 µM (≈ 2.5 µg/mL), the MIC [2] is reported as 4 µM (≈ 1.25 µg/mL) and the Ratio [3] is reported as 2.5. The Ratio [4] was over 19.
CC[C@@H](CO)NCCN[C@@H](CC)CO [ETHAMBUTOL] was tested, and the MIC [1] was over 158 µM, the MIC [2] was 9.9 µM (≈ 2.02 µg/mL) and the Ratio [3] was 1. It also gave a Ratio [4] of 1.
Compound CCCCCCCCCCCCCCC(COCc1ccccc1)NCC(=O)OCC (stereo not given) has an MIC [1] of 72 µM (≈ 31.2 µg/mL), an MIC [2] of 72 µM (≈ 31.2 µg/mL) and a Ratio [3] of 0.13. The Ratio [4] was over 2.2.
In the case of CCCCCCCCCCCCCCC(CN(CC(=O)OCC)CC(=O)OCC)NC(=O)OC(C)(C)C (stereo not given), the MIC [1] is reported as 59 µM (≈ 31.2 µg/mL), the MIC [2] is reported as 59 µM (≈ 31.2 µg/mL) and the Ratio [3] is reported as 0.17. For the same compound, the Ratio [4] was over 2.7.
CCCCCCCCCCCCCCC(N)CO (stereo not given) was tested, and the MIC [1] was 49 µM (≈ 12.6 µg/mL), the MIC [2] was 24 µM (≈ 6.18 µg/mL) and the Ratio [3] was 0.41. For the same compound, the Ratio [4] was over 16.
For CCCCCCCCCCCCCCC(CN)NC(=O)OC(C)(C)C (stereo not given), the MIC [1] was 30 µM (≈ 10.7 µg/mL), the MIC [2] was 30 µM (≈ 10.7 µg/mL) and the Ratio [3] was 0.3. The Ratio [4] was over 5.2.
Compound CCCCCCCCCCCCCCC(COCc1ccccc1)NC(=O)CCC(=O)O (stereo not given) has an MIC [1] of 140 µM (≈ 62.7 µg/mL), an MIC [2] of 140 µM (≈ 62.7 µg/mL) and a Ratio [3] of 0.07. It also gave a Ratio [4] of over 1.1.
For CCCCCCCCCCCCCCC(COCc1ccccc1)NC(=O)CCCC(=O)O (stereo not given), the MIC [1] was 68 µM (≈ 31.4 µg/mL), the MIC [2] was 68 µM (≈ 31.4 µg/mL) and the Ratio [3] was 0.14. The Ratio [4] was over 2.3.
In the case of CCCCCCCCCCCCCCC(CN(CC)CC)NC(=O)OC(C)(C)C (stereo not given), the MIC [1] is reported as 15.2 µM (≈ 6.27 µg/mL), the MIC [2] is reported as 15.2 µM (≈ 6.27 µg/mL) and the Ratio [3] is reported as 0.65. For the same compound, the Ratio [4] was over 10.
Work on CCCCCCCCCCCCCCC(N)COCc1ccccc1 (stereo not given) yielded an MIC [1] of 3.6 µM (≈ 1.25 µg/mL), an MIC [2] of 3.6 µM (≈ 1.25 µg/mL) and a Ratio [3] of 2.8. The Ratio [4] was over 43.
Compound CCCCCCCCCCCCCCC(CNC(=O)CCCC(=O)O)NC(=O)OC(C)(C)C (stereo not given) has an MIC [1] of 133 µM (≈ 62.6 µg/mL), an MIC [2] of 133 µM (≈ 62.6 µg/mL) and a Ratio [3] of 0.07. It also gave a Ratio [4] of over 1.2.
CCCCCCCCCCCCCCC(N)CN (stereo not given) gave an MIC [1] of 12.6 µM (≈ 3.23 µg/mL), an MIC [2] of 12.6 µM (≈ 3.23 µg/mL) and a Ratio [3] of 0.8. The Ratio [4] was over 12.
